Measurements as given in patent publication US11485733B2, “Azaquinoline derivatives” (BAYER ANIMAL HEALTH GMBH, priority 2017, dated 2022).

Columns and labels:
[1] = tested on: Cooperia curticei; assay: Cooperia curticei larval mortality; settings: 120 h, read-out: activity (percentage of larval mortality)
Protocol: In Vitro Assay 6: Cooperia curticei
Solvent: Dimethyl Sulfoxide
Approximately 40 nematode larvae (Cooperia curticei) are transferred into a test tube containing the compound solution.
After 5 days percentage of larval mortality is recorded. 100% efficacy means all larvae are killed; 0% efficacy means no larvae are killed.

[2] = tested on: Haemonchus contortus; assay: Haemonchus contortus larval mortality; settings: 120 h, read-out: activity (percentage of larval mortality)
Protocol: In Vitro Assay 7: Haemonchus contortus
Solvent: Dimethyl Sulfoxide
Approximately 40 larvae of the red stomach worm (Haemonchus contortus) are transferred into a test tube containing compound solution.
After 5 days the percentage of larval mortality is recorded. 100% efficacy means all larvae are killed, 0% efficacy means no larvae are killed.

[3] = tested on: Dirofilaria immitis; assay: Dirofilaria immitis (DIROIM L4) larval motility; settings: 72 h, read-out: EC50 (reduction of motility)
[4] = tested on: Litomosoides sigmodontis third-stage larvae; assay: Litomosoides sigmodontis (LTMOSI L3) larval motility; settings: 72 h, read-out: EC50 (reduction of motility)
Protocol: In Vitro Assay 6: Litomosoides sigmodontis (LTMOSI L3)
10 Litomosoides sigmodontis third-stage larvae, which were freshly isolated from the pleural cavity of an infected rodent, were added to wells of a microtitre plate containing a nutrient medium and the test compound in DMSO. Compounds were tested in concentration-response assay in duplicate. Larvae exposed to DMSO and no test compounds were used as negative controls. Larvae were evaluated after 72 h of incubation with the compound. Efficacy was determined as the reduction of motility in comparison to the negative control. Based on the evaluation of a wide concentration range, concentration-response curves as well as EC50-values were calculated.

[5] = target: D. immitis Slo-1 (Dirofilaria immitis, UniProt I0DFK5); assay: D. immitis Slo-1, action at a recombinant CHO cell line (membrane potential, FLIPR); assay type: cell-based
Chain of D. immitis Slo-1 (I0DFK5 1-1119): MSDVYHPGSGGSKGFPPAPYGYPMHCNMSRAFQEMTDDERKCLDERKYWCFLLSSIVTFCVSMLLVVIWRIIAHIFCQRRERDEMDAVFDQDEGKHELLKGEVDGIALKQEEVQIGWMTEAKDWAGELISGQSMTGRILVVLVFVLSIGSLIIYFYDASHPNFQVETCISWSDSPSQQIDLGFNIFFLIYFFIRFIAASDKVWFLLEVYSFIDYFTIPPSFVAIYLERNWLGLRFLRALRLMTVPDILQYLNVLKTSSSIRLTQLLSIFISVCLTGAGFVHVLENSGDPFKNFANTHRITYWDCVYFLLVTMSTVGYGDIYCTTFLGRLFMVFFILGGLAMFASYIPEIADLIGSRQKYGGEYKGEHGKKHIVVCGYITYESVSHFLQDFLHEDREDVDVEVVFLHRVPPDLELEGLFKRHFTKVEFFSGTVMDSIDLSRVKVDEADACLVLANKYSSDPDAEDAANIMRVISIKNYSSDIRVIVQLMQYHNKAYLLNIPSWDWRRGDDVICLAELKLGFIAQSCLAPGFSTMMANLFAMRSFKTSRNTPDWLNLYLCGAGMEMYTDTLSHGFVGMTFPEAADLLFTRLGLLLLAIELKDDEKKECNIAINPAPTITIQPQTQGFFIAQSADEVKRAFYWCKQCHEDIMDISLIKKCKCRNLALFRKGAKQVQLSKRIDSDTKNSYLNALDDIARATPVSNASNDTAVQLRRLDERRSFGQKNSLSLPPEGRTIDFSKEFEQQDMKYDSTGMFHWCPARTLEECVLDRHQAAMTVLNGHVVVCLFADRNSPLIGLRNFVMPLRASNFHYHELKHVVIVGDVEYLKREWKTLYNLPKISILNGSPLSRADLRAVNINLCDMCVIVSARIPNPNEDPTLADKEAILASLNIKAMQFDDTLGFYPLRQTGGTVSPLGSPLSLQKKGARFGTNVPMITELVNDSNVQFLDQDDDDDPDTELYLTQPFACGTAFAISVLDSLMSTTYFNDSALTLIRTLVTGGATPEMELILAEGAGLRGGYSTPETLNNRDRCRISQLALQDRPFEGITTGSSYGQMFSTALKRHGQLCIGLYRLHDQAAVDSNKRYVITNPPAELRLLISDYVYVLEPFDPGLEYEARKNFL

[6] = target: C. elegans Slo-1a (Caenorhabditis elegans, UniProt Q95V25); settings: pE50 (negative decadic logarithm of EC50), CHO cells expressing C. elegans Slo-1a; voltage sensitive dye, 70 mM KCl
Chain of C. elegans Slo-1a (Q95V25 whole entry): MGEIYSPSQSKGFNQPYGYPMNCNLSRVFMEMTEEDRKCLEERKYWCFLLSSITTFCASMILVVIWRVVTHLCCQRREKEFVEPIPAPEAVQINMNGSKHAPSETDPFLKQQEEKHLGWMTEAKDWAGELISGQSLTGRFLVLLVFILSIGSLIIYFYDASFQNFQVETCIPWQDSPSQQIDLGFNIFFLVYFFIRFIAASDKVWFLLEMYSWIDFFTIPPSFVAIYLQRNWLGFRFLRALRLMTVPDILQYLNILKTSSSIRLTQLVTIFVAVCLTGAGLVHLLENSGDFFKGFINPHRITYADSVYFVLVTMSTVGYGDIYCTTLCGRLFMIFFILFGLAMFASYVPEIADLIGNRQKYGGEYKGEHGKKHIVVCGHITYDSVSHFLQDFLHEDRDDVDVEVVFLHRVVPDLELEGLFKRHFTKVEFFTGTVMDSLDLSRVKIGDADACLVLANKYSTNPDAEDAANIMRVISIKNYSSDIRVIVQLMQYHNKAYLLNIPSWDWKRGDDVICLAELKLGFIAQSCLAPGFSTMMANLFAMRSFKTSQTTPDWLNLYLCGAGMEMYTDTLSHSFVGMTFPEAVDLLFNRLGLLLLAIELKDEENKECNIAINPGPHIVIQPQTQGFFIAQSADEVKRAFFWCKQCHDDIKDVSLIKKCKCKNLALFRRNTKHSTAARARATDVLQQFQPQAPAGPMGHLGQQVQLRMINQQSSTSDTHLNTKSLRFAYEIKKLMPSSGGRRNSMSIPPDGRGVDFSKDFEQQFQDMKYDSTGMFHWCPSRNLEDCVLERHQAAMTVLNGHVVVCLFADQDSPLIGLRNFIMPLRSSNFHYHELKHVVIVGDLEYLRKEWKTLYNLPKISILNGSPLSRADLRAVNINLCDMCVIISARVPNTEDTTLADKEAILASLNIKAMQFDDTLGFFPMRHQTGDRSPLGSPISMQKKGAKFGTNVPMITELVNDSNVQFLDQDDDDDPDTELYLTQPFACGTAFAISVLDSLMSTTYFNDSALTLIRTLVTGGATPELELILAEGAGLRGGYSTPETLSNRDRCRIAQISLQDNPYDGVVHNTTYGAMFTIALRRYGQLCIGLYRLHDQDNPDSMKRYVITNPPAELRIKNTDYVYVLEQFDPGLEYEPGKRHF
Protocol: Generation of a Stable C. elegans CHO Cell Line
A CHO cell line was obtained from ATCC, code ATCC CRL-9096. […] The transfection solution included 300 μL OptiMEM (Life Technologies, Nr.: 31985), 2 μL (=6 μg) of plasmid DNA containing the C. elegans Slo 1a gene and 9 μL FugeneHD (Promega, Nr.: E2311), and was added to the cells prior to incubation for 48 hours at 37° C., 5% CO2. The transfection medium was exchanged for the selection medium which contains additional G418 (2 mg/ml, Invitrogen, Nr.: 10131) and the cells were seeded into 384 well plates (300 cells/well). After a few weeks, the remaining surviving cells were tested with a voltage sensitive dye (Membrane Potential Assay Kit, Molecular Devices Nr.: R8034) for K+ channel expression. Positive cell clones were purified by the limited dilution technique. For this the clone with the highest and most robust signal in the voltage sensitive dye assay was further subcloned (incubated) in 384 well plates (0.7 cells/well) in order to obtain clonal purity. This generated a final stable CHO cell line expressing the C. elegans Slo-1a.
Cells were cultured at 37° C. and 5% CO2 in MEMalpha with Gutamax I (Invitrogen, Nr.: 32571), supplemented with 10% (v/v) heat inactivated fetal bovine serum (Invitrogen, Nr.: 10500), G418 (1 mg/ml, Invitrogen, Nr.: 10131). Cells were detached using Accutase (Sigma, Nr.: A6964).
Membrane Potential Measurements
Laboratory compound testing was performed on 384-well microtiter plates (MTPs, Greiner, Nr.: 781092). 8000 cells/well were plated onto 384-well MTPs and cultured for 20 to 24 hours at 37° C. and 5% CO2. After removal of the cell culture medium, the cells were washed once with tyrode (150 mM NaCl, 0.3 mM KCl, 2 mM CaCl2, 1 mM MgCl2, 0.8 mM NaH2PO4, 5 mM Glucose, 28 mM Hepes, pH 7.4) and then loaded with the voltage sensitive dye of the Membrane Potential Assay Kit diluted in tyrode for 1 h at room temperature.
After starting the measurement of fluorescence using a FLIPR Tetra (Molecular Devices, Exc. 510-545 nm, Emm. 565-625 nm), test compounds were added followed by the addition of KCl tyrode (final assay concentration: 70 mM KCl, 2 mM CaCl2, 1 mM MgCl2, 0.8 mM NaH2PO4, 5 mM Glucose, 28 mM Hepes, pH 7.4, including the voltage sensitive dye). The measurement was completed after 7 minutes.
The data were evaluated by using the ActivityBase XLfit software (IDBS) for curve fitting and calculation of the half-maximal effective concentration (EC50) and are reported as negative decadic logarithm (pE50).

[7] = tested on: Dirofilaria immitis microfilariae; assay: Dirofilaria immitis microfilariae (DIROIM L1) motility; settings: 72 h, read-out: EC50 (reduction of motility)
[8] = tested on: Nippostrongylus brasiliensis; assay: Nippostrongylus brasiliensis (NIPOBR) adult worms, acetylcholine esterase readout; settings: at 1 μg/ml (1 ppm), read-out: activity (reduction of AChE compared to negative control)
Summary of the method: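 Adult worms washed in saline with penicillin/streptomycin/amphotericin B, then incubated in medium with test compound (DMSO) at final 10 μg/ml (10 ppm) or 1 μg/ml (1 ppm). Acetylcholine esterase activity in a medium aliquot served as anthelmintic readout, compared with negative control.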

Question: Which mortality at 4 ppm [1] does the source give for `COc1c(C(=O)N[C@H]2CCOc3ccccc32)nnc2c(-c3cccc(Cl)c3Cl)cccc12` [Example T5-7, 8-(2,3-Dichlorophenyl)-N-[(4S)-3,4-dihydro-2H-chromen-4-yl]-4-methoxycinnoline-3-carboxamide] here?
Answer: 100%

Question: And the mortality at 20 ppm [1]?
Answer: 100%

Question: And the mortality at 20 ppm [2]?
Answer: 90%

Question: And the EC50 [3]?
Answer: < 0.1 µg/mL

Question: What about the EC50 [4] of the same molecule?
Answer: < 0.1 µg/mL

Question: And the EC50 [5]?
Answer: 31.6 to 316 nM

Question: And the EC50 [6]?
Answer: < 3.16 nM

Question: And the EC50 [7]?
Answer: < 0.1 µg/mL

Question: And the inhibition at 1 µg/mL [8]?
Answer: > 80%
